# Results published in US4181731A, “Novel therapeutic application of 4-carbamoyl-5-hydroxyimidazole” (Sumitomo Chemical Company, Limited, priority 1978, dated 1980).
# Tests used:
# adjuvant arthritis = assay: Inhibitory effects on the adjuvant arthritis of rats (antirheumatic activity); type: in vivo; conditions: for Foot Volume: control 2.34 ml; for Inhibition Rate: foot volume
# Description: The antirheumatic activities on adjuvant arthritis were estimated according to the methods described in "Arzneimittel-Forschung (Drug Res.)", Vol. 22, p. 1959 (1972).
# *Successive administration was performed immediately after inoculation of […]
# Masuji nephritis = assay: Antinephritic effects on Masuji nephritis; type: in vivo; conditions: for Urinary Protein: control 238.9; for Inhibition Ratio: urinary protein
# Excerpt: The antinephritic activities were estimated according to the methods described in "Arerugii", Vol. 24, p. 472 (1975) (in Japanese).
# *Successive oral administration began for 2 days before the injection of […]
# [1] = Acute toxicity against mice; conditions: mouse, in vivo, mice (ICR, male, 22-25 g)
# Excerpt: Acute toxicity of Compound A against mice (ICR, male, body weight 22-25 g) was as follows.
# mice (ICR, male) = assay: Subacute toxicities against mice (oral, 21 days); type: in vivo; conditions: 100 mg/kg/day orally
# Description: Subacute toxicities of Compound A against mice (ICR, male, body weight approximately 25 g) were as follows. The said compound was orally administered for 21 days. The dosage level was 100 mg/kg/day.
smiles,measurement,setting,value
"NC(=O)c1nc[nH]c1O [Compound A, 4-carbamoyl-5-hydroxyimidazole]",Foot Volume,"adjuvant arthritis; 5 mg/kg/day × 21, p.o.",1.28 mL
same,Foot Volume,"adjuvant arthritis; 10 mg/kg/day × 21, p.o.",0.88 mL
same,Foot Volume,"adjuvant arthritis; 25 mg/kg/day × 21, p.o.",0.44 mL
same,Inhibition Rate,"adjuvant arthritis; 5 mg/kg/day × 21, p.o.",45.3%
same,Inhibition Rate,"adjuvant arthritis; 10 mg/kg/day × 21, p.o.",62.3%
same,Inhibition Rate,"adjuvant arthritis; 25 mg/kg/day × 21, p.o.",81.2%
same,Urinary Protein,"Masuji nephritis; 5 mg/kg/day × 16, p.o.",147.6 mg/24 hrs.
same,Urinary Protein,"Masuji nephritis; 10 mg/kg/day × 16, p.o.",68.4 mg/24 hrs.
same,Urinary Protein,"Masuji nephritis; 25 mg/kg/day × 16, p.o.",28.4 mg/24 hrs.
same,Inhibition Ratio,"Masuji nephritis; 5 mg/kg/day × 16, p.o.",38.2%
same,Inhibition Ratio,"Masuji nephritis; 10 mg/kg/day × 16, p.o.",71.4%
same,Inhibition Ratio,"Masuji nephritis; 25 mg/kg/day × 16, p.o.",88.1%
same,LD50,[1]; ip,> 500 mg/kg
same,LD50,[1]; iv,> 130 mg/kg
same,LD50,[1]; po,> 2000 mg/kg
same,Autopsy,"mice (ICR, male)",No adverse effect
same,Body weight change,"mice (ICR, male)",Normal
same,Clinical signs,"mice (ICR, male)",No adverse effect except slight involution of the spleen
same,Food consumption,"mice (ICR, male)",Normal
same,"Haematology, overall finding","mice (ICR, male)",No adverse effect
same,"Relative organ weight, Heart (average)","mice (ICR, male)",0.49%
same,"Relative organ weight, Kidney (average)","mice (ICR, male)",1.50%
same,"Relative organ weight, Liver (average)","mice (ICR, male)",6.24%
same,"Relative organ weight, Lung (average)","mice (ICR, male)",0.81%
same,"Relative organ weight, Spleen (average)","mice (ICR, male)",0.30%
same,"Relative organ weight, Testis (average)","mice (ICR, male)",0.38%
same,"Relative organ weight, Thymus (average)","mice (ICR, male)",0.20%
same,"Urinalysis, overall finding","mice (ICR, male)",No adverse effect
same,GOT (average),"mice (ICR, male); Haematology",54.4 K.U.
same,Hematocrit value (average),"mice (ICR, male); Haematology",35%
same,Hemoglobin (average),"mice (ICR, male); Haematology",15.1 g/dL
same,Red blood cells (average),"mice (ICR, male); Haematology",6.0 × 10^6 /mm^3
same,White blood cells (average),"mice (ICR, male); Haematology",6.5 × 10^4 /mm^3
same,Glucose (urinalysis),"mice (ICR, male); Urinalysis",Negative
same,Occult blood (urinalysis),"mice (ICR, male); Urinalysis",Negative
same,Protein (urinalysis),"mice (ICR, male); Urinalysis",30 to 100 mg/dL
same,pH (urinalysis),"mice (ICR, male); Urinalysis",6.0-6.5
